Assay results: patent US20100317575A1, “PHARMACEUTICAL COMPOSITION COMPRISING A PYRAZOLE-O-GLUCOSIDE DERIVATIVE” (BOEHRINGER INGELHEIM INTERNATIONAL GMBH, priority 2007, published 2010)

Tests used:
[1] = tested on: Male Zucker Diabetic Fatty (ZDF) rats (ZDF/Crl-Lepr^fa); test: HbA1c on day 37 of treatment in ZDF rats; assay type: in vivo, rat; conditions: overnight fasted
Method: All experimental protocols concerning the use of laboratory animals are reviewed by a federal Ethics Committee and approved by governmental authorities. Male Zucker Diabetic Fatty (ZDF) rats (ZDF/Crl-Lepr^fa) at the age of 12 weeks are treated for 5 weeks with the pyrazole-O-glucoside (16), i.e. 4-(2-fluoro-4-methoxy-benzyl)-1-isopropyl-5-methyl-3-β-D-glucopyranos-1-yloxy-1H-pyrazole, at a dose of 10 mg/kg administered twice daily in the morning and evening, or with metformin at a dose of 200 mg/kg once daily in the morning, or with the combination of the pyrazole-O-glucoside and metformin at the same dose regimens. Vehicle for administration is 0.5% aqueous hydroxyethylcellulose containing 0.015% Polysorbat 80. Control animals are dosed twice daily with vehicle alone. Blood samples are obtained by tail bleed. Blood glucose is measured with a glucometer and HbA1c is measured with an automated analyzer (Cobas Integra 400, Roche). Prior to start of treatment, the animals are randomized for blood glucose and HbA1c (n=10/group).
On day 37 of treatment, HbA1c is measured pre-dose in tail blood obtained from overnight fasted animals. The data are presented as mean±SEM.

[2] = tested on: Male Zucker Diabetic Fatty (ZDF) rats (ZDF/Crl-Lepr^fa); test: Blood glucose AUC 0-7 h on day 20 of treatment in ZDF rats; assay type: in vivo, rat
Method: All experimental protocols concerning the use of laboratory animals are reviewed by a federal Ethics Committee and approved by governmental authorities. […] Control animals are dosed twice daily with vehicle alone. Blood samples are obtained by tail bleed. Blood glucose is measured with a glucometer and HbA1c is measured with an automated analyzer (Cobas Integra 400, Roche). Prior to start of treatment, the animals are randomized for blood glucose and HbA1c (n=10/group). On day 20 of treatment, blood glucose is measured in tail blood pre-dose, 0.5 h, 1.5 h, 3 h, and 7 h after dosing. Blood glucose is quantified by calculating the total glucose AUC 0-7 h. The data are presented as mean±SEM. The two-sided unpaired Student t-test is used for statistical comparison of the control group and the active groups.

the diabetic = conditions: metformin on its own; cited from earlier work

In the case of CN(C)C(=N)N=C(N)N [Metformin, metformin], the “reduction of HbA1c (numerically) versus control” value ([1]; metformin 200 mg/kg once daily) is listed as 0.3%, the “reduction of total glucose AUC 0-7 h versus control” value ([2]; metformin 200 mg/kg once daily) is listed as 11% and the “average improvement in the HbA1c value” (the diabetic) is listed as 1.0-1.5%.
With COc1ccc(Cc2c(O[C@@H]3O[C@H](CO)[C@@H](O)[C@H](O)[C@H]3O)nn(C(C)C)c2C)c(F)c1 [(16), 4-(2-fluoro-4-methoxy-benzyl)-1-isopropyl-5-methyl-3-β-D-glucopyranos-1-yloxy-1H-pyrazole] the “reduction of HbA1c (numerically) versus control” value ([1]; 10 mg/kg twice daily) was 2.1% and the “reduction of total glucose AUC 0-7 h versus control” value ([2]; 10 mg/kg twice daily) was 38%.
